The term IC50 denotes the concentration that gives 50% inhibition.

The text below walks through data of ChEMBL document CHEMBL1817541, “Synthesis and Evaluation of the α-D-/α-L-Rhamnosyl and Amicetosyl Digitoxigenin Oligomers as Anti-tumor Agents” (ACS Med Chem Lett, 2011).

Assay type in all cases: functional
Assay [1] deals with NCI-H460. The assay can be described thus: Cytotoxicity against human NCI-H460 cell assessed as cell death at 1 uM after 12 hrs by Hoechst 33342/propidium iodide staining based fluorescence microscopy.
In assay [2] the test system is NCI-H460. Nature of the assay: Cytotoxicity against human NCI-H460 cell assessed as cell death at 10 nM after 12 hrs by Hoechst 33342/propidium iodide staining based fluorescence microscopy.
Assay [3] relates to NCI-H460. The assay can be described thus: Cytotoxicity against human NCI-H460 cells in serum free medium assessed as cell death at 10 uM after 12 hrs by Hoechst 33342/propidium iodide staining based fluorescence microscopy.
Assay [4] concerns NCI-H460. Nature of the assay: Cytotoxicity against human NCI-H460 cell assessed as cell death at 100 uM after 12 hrs by Hoechst 33342/propidium iodide staining based fluorescence microscopy.
In assay [5] the test system is NCI-H460. The assay can be described thus: Cytotoxicity against human NCI-H460 cell assessed as cell death at 100 nM after 12 hrs by Hoechst 33342/propidium iodide staining based fluorescence microscopy.
The test system of assay [6] is NCI-H460. The assay can be described thus: Cytotoxicity against human NCI-H460 cell assessed as cell death after 12 hrs by Hoechst 33342/propidium iodide staining based fluorescence microscopy. Particulars: NCI-H460, 12 h.
Assay [7] has as its system NCI-H460. Nature of the assay: Cytotoxicity against human NCI-H460 cell assessed as cell death at 500 nM after 12 hrs by Hoechst 33342/propidium iodide staining based fluorescence microscopy.
Assay [8] relates to NCI-H460. The assay can be described thus: Cytotoxicity against human NCI-H460 cell assessed as cell death at 50 nM after 12 hrs by Hoechst 33342/propidium iodide staining based fluorescence microscopy.
For assay [9], the system named is NCI-H460. The assay can be described thus: Induction of apoptosis in human NCI-H460 cells in at 50 nM after 12 hrs by Hoechst 33342/propidium iodide staining based fluorescence microscopy.

Take `C[C@@H]1O[C@@H](O[C@@H]2[C@@H](O)[C@@H](O)[C@H](O[C@@H]3[C@@H](O)[C@@H](O)[C@H](O[C@H]4CC[C@@]5(C)[C@H](CC[C@@H]6[C@@H]5CC[C@]5(C)[C@@H](C7=CC(=O)OC7)CC[C@]65O)C4)O[C@H]3C)O[C@H]2C)[C@H](O)[C@H](O)[C@H]1O`: the Activity in assay [1] is given as 43.65%; in [2], 10.71%; in [3] it was 94.07%; in assay [4], 100%; in [5] it was 15.21%; in assay [7], 38.97%. The Activity in assay [8] stood at 12.17%. The IC50 in [6] came to 1.35 µM.

Regarding `C[C@@H]1O[C@@H](O[C@@H]2[C@@H](O)[C@@H](O)[C@H](O[C@H]3CC[C@@]4(C)[C@H](CC[C@@H]5[C@@H]4CC[C@]4(C)[C@@H](C6=CC(=O)OC6)CC[C@]54O)C3)O[C@H]2C)[C@H](O)[C@H](O)[C@H]1O`, the Activity in assay [1] was 92.06%; in assay [2], 12.68%; in assay [3], 100%; in assay [4] it was 100%; in [5] it was 20.51%; in assay [7] it was 62.95%. Also, the Activity in [8] is reported as 16.8%. Besides, in [6], the half-inhibitory concentration (IC50) turned out to be 0.365 µM.

On to `C[C@@H]1O[C@@H](O[C@@H]2CC[C@H](O[C@H]3CC[C@@]4(C)[C@H](CC[C@@H]5[C@@H]4CC[C@]4(C)[C@@H](C6=CC(=O)OC6)CC[C@]54O)C3)O[C@H]2C)CC[C@H]1O`, for which the Activity in assay [1] worked out at 94.59%; in [2], 8.73%; in assay [3], 100%; in assay [4], 100%; in [5], 18.03%; in assay [7] it was 53.76%. The Activity in [8] came to 14.89%. Also, in assay [6], the IC50 was 0.51 µM.

Turning to `C[C@H]1O[C@H](O[C@H]2CC[C@@]3(C)[C@H](CC[C@@H]4[C@@H]3CC[C@]3(C)[C@@H](C5=CC(=O)OC5)CC[C@]43O)C2)[C@@H](O)[C@@H](O)[C@@H]1O`, the Activity worked out at 45.71% in [9]; 71.67% in assay [1]; 7.85% in assay [2]; 95.72% in [3]; 100% in [4]; 12.28% in assay [5]. Moreover, the Activity in assay [7] came to 35.05%; in assay [8] it was 12.14%. Besides, the 50% inhibitory concentration (IC50) in assay [6] amounted to 0.706 µM.

Take `C[C@H]1O[C@H](O[C@H]2[C@H](O)[C@H](O)[C@@H](O[C@H]3[C@H](O)[C@H](O)[C@@H](O[C@H]4CC[C@@]5(C)[C@H](CC[C@@H]6[C@@H]5CC[C@]5(C)[C@@H](C7=CC(=O)OC7)CC[C@]65O)C4)O[C@@H]3C)O[C@@H]2C)[C@@H](O)[C@@H](O)[C@@H]1O`: the Activity came out at 8.37% in assay [1]; 6.44% in assay [2]; 28.42% in [3]; 59.91% in assay [4]; 7.17% in assay [5]; 7.99% in [7]. Further, the Activity in [8] was found to be 6.85%. Also, in [6], the IC50 was found to be 18 µM.

For `C[C@H]1O[C@H](O[C@H]2[C@H](O)[C@H](O)[C@@H](O[C@H]3CC[C@@]4(C)[C@H](CC[C@@H]5[C@@H]4CC[C@]4(C)[C@@H](C6=CC(=O)OC6)CC[C@]54O)C3)O[C@@H]2C)[C@@H](O)[C@@H](O)[C@@H]1O`, the Activity in [1] stood at 14.52%; in assay [2], 6.36%; in assay [3], 58.09%; in assay [4], 73.4%; in assay [5], 9.87%; in assay [7], 11.06%. Further, in [8], the Activity worked out at 7.37%. Moreover, in assay [6], the IC50 was found to be 4.27 µM.

As for `C[C@H]1O[C@H](O[C@H]2CC[C@@]3(C)[C@H](CC[C@@H]4[C@@H]3CC[C@]3(C)[C@@H](C5=CC(=O)OC5)CC[C@]43O)C2)CC[C@@H]1O[C@@H]1CC[C@H](O)[C@@H](C)O1`, the Activity was 15.99% in assay [1]; 9.06% in [2]; 50.25% in assay [3]; 71.1% in assay [4]; 11.49% in assay [5]; 12.91% in assay [7]. Further, in [8], the Activity worked out at 10.01%. In addition, the IC50 in assay [6] amounted to 5.99 µM.

Take `C[C@H]1O[C@H](O[C@H]2CC[C@@]3(C)[C@H](CC[C@@H]4[C@@H]3CC[C@]3(C)[C@@H](C5=CC(=O)OC5)CC[C@]43O)C2)CC[C@@H]1O[C@@H]1CC[C@H](O[C@@H]2CC[C@H](O)[C@@H](C)O2)[C@@H](C)O1`: the Activity worked out at 9.84% in [1]; 6.55% in assay [2]; 26.48% in [3]; 53.1% in assay [4]; 8.57% in assay [5]; 9.11% in assay [7]. The Activity in assay [8] is 7.85%. Also, the IC50 in [6] was 33.1 µM.

As for `C[C@@H]1O[C@@H](O[C@@H]2CC[C@H](O[C@@H]3CC[C@H](O[C@H]4CC[C@@]5(C)[C@H](CC[C@@H]6[C@@H]5CC[C@]5(C)[C@@H](C7=CC(=O)OC7)CC[C@]65O)C4)O[C@H]3C)O[C@H]2C)CC[C@H]1O`, the Activity is 25.85% in assay [1]; 8.34% in [2]; 70.17% in assay [3]; 91.74% in assay [4]; 11.8% in assay [5]; 16.46% in [7]. Moreover, in assay [8], the Activity is 10.85%. For the same molecule, the IC50 in assay [6] was determined as 3.96 µM.

`C[C@@H]1O[C@@H](O[C@H]2CC[C@@]3(C)[C@H](CC[C@@H]4[C@@H]3CC[C@]3(C)[C@@H](C5=CC(=O)OC5)CC[C@]43O)C2)[C@H](O)[C@H](O)[C@H]1O`: the Activity in assay [9] is reported as 48.64%; in assay [1], 100%; in [2], 17.04%; in assay [3], 100%; in assay [4] it was 100%; in [5], 96.96%. Besides, the Activity is listed as 100% in assay [7] and 60.56% in assay [8].
